Target: T1, TRPC4 (Homo sapiens, UniProt Q9UBN4)
T1 construct: human TRPC4a channel
T1 sequence (Q9UBN4 1-977): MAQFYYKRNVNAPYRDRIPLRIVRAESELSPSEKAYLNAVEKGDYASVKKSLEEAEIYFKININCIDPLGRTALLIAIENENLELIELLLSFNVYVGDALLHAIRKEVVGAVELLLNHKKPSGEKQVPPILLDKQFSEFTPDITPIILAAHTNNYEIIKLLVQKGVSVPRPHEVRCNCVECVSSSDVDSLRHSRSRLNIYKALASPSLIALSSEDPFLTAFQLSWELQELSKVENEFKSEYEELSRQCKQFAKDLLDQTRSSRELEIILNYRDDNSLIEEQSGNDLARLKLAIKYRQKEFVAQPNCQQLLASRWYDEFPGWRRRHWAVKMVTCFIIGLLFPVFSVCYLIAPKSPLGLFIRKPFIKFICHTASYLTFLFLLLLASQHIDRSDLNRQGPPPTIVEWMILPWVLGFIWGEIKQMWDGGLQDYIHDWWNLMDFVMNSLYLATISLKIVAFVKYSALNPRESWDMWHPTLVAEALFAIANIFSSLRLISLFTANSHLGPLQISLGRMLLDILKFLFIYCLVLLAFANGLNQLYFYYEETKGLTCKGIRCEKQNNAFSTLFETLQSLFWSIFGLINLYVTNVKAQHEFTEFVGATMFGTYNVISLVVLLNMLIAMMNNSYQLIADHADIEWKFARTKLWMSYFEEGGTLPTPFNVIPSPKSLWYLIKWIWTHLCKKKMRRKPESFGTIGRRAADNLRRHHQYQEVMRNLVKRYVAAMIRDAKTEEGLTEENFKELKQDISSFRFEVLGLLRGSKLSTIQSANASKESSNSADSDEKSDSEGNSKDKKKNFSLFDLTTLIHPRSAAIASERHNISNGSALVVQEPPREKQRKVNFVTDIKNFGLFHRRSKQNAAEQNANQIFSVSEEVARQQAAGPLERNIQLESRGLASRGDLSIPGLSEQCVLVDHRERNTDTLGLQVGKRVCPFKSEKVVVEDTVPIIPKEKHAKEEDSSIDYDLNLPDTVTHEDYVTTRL
Assay: whole-cell patch clamp in HEK293-TRPC4 cells (EA-evoked current); also Ca2+ influx assay
Format: cell-based

## C=C(C)[C@@H]1CCC(C)=C[C@H]1c1c(O)cc(CCCCC)cc1O [CBD, Cannabidiol]
  IC50: 1.52 ± 0.6 µM
